{
  "source": "patent US8497285B2",
  "about": "“Therapy of autoimmune colitis using a TIP60 inhibitor” (The Trustees Of The University Of Pennsylvania, priority 2010, dated 2013)",
  "key": {"[1]": {"target": "T1, TIP60 (Homo sapiens, UniProt Q92993)", "T1 construct": "expressed in transfected cells; host or cells: 293T cells", "T1 sequence (Q92993 whole entry, species assumed)": "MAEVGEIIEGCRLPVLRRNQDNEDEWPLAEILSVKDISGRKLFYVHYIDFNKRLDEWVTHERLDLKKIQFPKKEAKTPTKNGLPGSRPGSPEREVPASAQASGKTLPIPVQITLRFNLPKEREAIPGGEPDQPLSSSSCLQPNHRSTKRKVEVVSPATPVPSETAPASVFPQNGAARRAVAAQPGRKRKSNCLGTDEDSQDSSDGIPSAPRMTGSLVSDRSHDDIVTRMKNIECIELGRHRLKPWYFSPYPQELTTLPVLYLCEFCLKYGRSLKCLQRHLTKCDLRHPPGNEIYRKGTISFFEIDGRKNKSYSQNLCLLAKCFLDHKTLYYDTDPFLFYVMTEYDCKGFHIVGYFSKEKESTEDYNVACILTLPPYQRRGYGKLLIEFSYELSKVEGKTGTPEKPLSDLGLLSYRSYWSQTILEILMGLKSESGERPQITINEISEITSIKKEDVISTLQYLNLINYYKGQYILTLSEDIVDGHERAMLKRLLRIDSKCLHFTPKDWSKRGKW", "assay": "TIP60 activity by acetylation of TIP60 or its substrate FOXP3 in transfected 293T cells (Ac-K immunoprecipitation, Western blot)", "assay_type": "cell-based", "settings": "4 hours", "method": "FIG. 11 illustrate the effect of B7G on TIP60. TIP60 activity was assessed by examining acetylation of TIP60 or its substrate FOXP3. Both TIP60 and FOXP3 were overexpressed in 293T cells. Acetylated proteins were first immunoprecipitated with the acetyl-lysine specific antibody Ac-K and then blotted with HRP conjugated antibodies to expression tags (HA for FOXP3 or FLAG for TIP60).\nTIP60 is known to have acetyl transferase activity to acetylate itself (auto-acetylation) or substrates including FOXP3. To examine activity of B7G on TIP60, 293T cells were transfected with Flag-tagged TIP60 and HA-tagged FOXP3. 24 hours after transfection, cells were treated with various concentrations of B7G for 4 hours before cell lysates were collected. Acetylated proteins were precipitated by anti-acetyl lysine antibody Ac-K. FOXP3 and TIP60 in the lysate or precipitated by Ac-K antibody were identified by anti-HA-HRP and anti-FLAG-HRP respectively."}, "[2]": {"system": "Treg suppression of T cell proliferation", "assay": "Treg suppression assay (CFSE T cell proliferation, 3 days, varying Treg:T cell ratios)", "assay_type": "cell-based", "settings": "for suppression of Treg in vitro: 500x dilution of 10 mM, 20 micromolar, FIG. 10; for T cell proliferation (percentage of proliferated cells): Treg:Teff=1:1", "source_text": "FIG. 8. are flow cytometry dataplots showing the enhancement of TIP60 inhibitor B7 suppression of Treg in vitro. Individual peaks reflect number of cells divisions under the standard test conditions (3 days), where the cell populations are dyed with CFSE (carboxyfluorescen diacetate, succimidyl ester). FIG. 8A are the data for DMSO without B7; FIG. 8B are the data for B7-1000×; FIG. 8C are the data for B7-4000×; and FIG. 8D are the data for B7-8000. In each case, the 1000×/4000×/8000× refers to the dilution factor of the B7, from an original 10 mM solution of B7; e.g, 1000× represents a solution diluted by a factor of 1000, so as to result in a 10 micromolar solution. The numbers in the upper left corner of the plot (e.g., 88, 81, 74, 65, and 37 of FIG. 8A) refer to the measured percentage of proliferated cells.\nFIG. 10. are flow cytometry dataplots showing the enhancement of TIP60 inhibitors B7 suppression of Treg in vitro. FIG. 10A are the data for DMSO without any B7-type inhibitor; FIG. 10B are the data for B7-500×; FIG. 10C are the data for B7A-500×; FIG. 10D are the data for B7B-500; and FIG. 10D are the data for B7C-500×. In each case, the 500× refers to the dilution factor of the B7/B7A/B7B/B7C, from an original 10 mM solution of the compound; e.g, 500× represents a solution diluted by a factor of 500, so as to result in a 20 micromolar solution.\nSeveral exemplary compounds of the present invention were screened at 10 μg/ml in vitro, at varying Treg:T cell ratios, using standard cell proliferation techniques (3 days, using CSFE dyes). Such techniques are well understood by those skilled in the art. For example, see Akimova T, Ge G, Golovina T, Mikheeva T, Wang L, Riley J L, Hancock W W., “Histone/protein deacetylase inhibitors increase suppressive functions of human FOXP3+ Tregs,” Clin Immunol. 2010 September; 136(3):348-63; Tao R, Hancock W W., Resistance of FOXP3+ regulatory T cells to Nur77-induced apoptosis promotes allograft survival,” PLoS One. 2008 May 28; 3(5):e2321; Tao R, Wang L, Murphy K M, Fraser C C, Hancock W W., “Regulatory T cell expression of herpesvirus entry mediator suppresses the function of B and T lymphocyte attenuator-positive effector T cells.,” J. Immunol. 2008 May 15; 180(10):6649-55; and Tao R, de Zoeten E F, Ozkaynak E, Chen C, Wang L, Porrett P M, Li B, Turka L A, Olson E N, Greene M I, Wells A D, Hancock W W., “Deacetylase inhibition promotes the generation and function of regulatory T cells,” Nat. Med. 2007 November; 13(11):1299-307 for the protocols used herein. Each of these references is incorporated by reference herein, at least for this purpose.\nT cell proliferation was unimpaired in the absence of Treg cells (see left panels in FIG. 8A-D), but was increasingly impaired at increasing Treg concentration (for example, in FIG. 8A, increasing Treg:Tcell ratio from 0:1 to 1:1 reduced proliferation from 88% to 37% under otherwise identical conditions). […] Efficacy was also seen at 1 μg/ml for some compounds."}, "[3]": {"system": "dextran sodium sulfate (DSS) colitis", "assay": "DSS model of colitis, reversal of established colitis", "assay_type": "in vivo, mice", "method": "FIG. 12A-C are the results of experiments described in Example 5. […] FIG. 12C provide graphical data for weight loss, bleeding score, and stool consistency (i.e., higher score reflects higher levels of diarrhea), wherein the mice were first subjected to DSS irritation, then subset populations were remedially treated after 8 days with the compound having Structure B7.\nIn a first test, the effects of exposure to dextran sodium sulfate (DSS) were evaluated, which results in a partially CD4-dependent inflammatory model of colitis, in wildtype (WT) versus TIP60dn C57BL/6 mice (8 mice/group).\nData were also generated using the compound of Structure B7 in the DSS model, in an experiment designed to test the ability of TIP60 inhibitor therapy to reverse established colitis by waiting until mice had ˜15% weight loss. In marked contrast to use of carrier DMSO alone, TIP60 inhibitor therapy (2 mg/kg/d, i.p.) reversed weight loss (p<0.01), blood in the stool (p<0.01) and diarrhea (p<0.005) (see FIG. 12C) and maintained colon length (p<0.01)."}, "[4]": {"system": "FOXP3", "assay": "FOXP3 bound on chromatin in SZ-4 T cells (Western blot)", "assay_type": "cell-based", "settings": "FIG. 9"}, "[5]": {"settings": "2 mg/kg/d i.p., vs carrier DMSO, p<0.01"}},
  "data": [
    {"smiles": "COc1ccc(CCN2CC(C(=O)Nc3ccc(F)c(Cl)c3)CC2=O)cc1OC", "note": "(stereo not drawn) [Compound B7G]", "values": [
      {"measurement": "Acetylated FOXP3", "setting": "[1]; 32 μg/ml", "value": "reduced significantly"},
      {"measurement": "Acetylated TIP60", "setting": "[1]; 32 μg/ml", "value": "reduced significantly"},
      {"measurement": "TIP60 auto-acetylation", "setting": "[1]; lower concentration", "value": "slightly increase"},
      {"measurement": "TIP60 expression level in total cell lysate", "setting": "[1]; various concentrations, FLAG-HRP", "value": "not significantly affected"},
      {"measurement": "FOXP3 expression level in total cell lysate", "setting": "[1]; various concentrations, HA-HRP", "value": "not significantly affected"}
    ]},
    {"smiles": "Cc1ccc(NC(=O)C2CC(=O)N(CCc3ccc(Cl)cc3)C2)cc1", "note": "(stereo not drawn) [Compound B7]", "values": [
      {"measurement": "suppression of Treg in vitro", "setting": "[2]", "value": "enhancement"},
      {"measurement": "Treg activity (decreasing T cell proliferation)", "setting": "[2]; B7 2.5 to 10 μM, dose dependent", "value": "enhanced the Treg activity"},
      {"measurement": "T cell proliferation in the absence of Treg cells", "setting": "[2]; Treg:T cell 0:1, FIG. 8A-D left panels", "value": "unimpaired"},
      {"measurement": "T cell proliferation (percentage of proliferated cells)", "setting": "[2]; highest B7 dose 10 μM (FIG. 8B, 1000x dilution)", "value": 25, "unit": "%"},
      {"measurement": "T cell proliferation (percentage of proliferated cells)", "setting": "[2]; intermediate B7 dose (FIG. 8C, 4000x dilution of 10 mM)", "value": 30, "unit": "%"},
      {"measurement": "T cell proliferation (percentage of proliferated cells)", "setting": "[2]; lowest B7 dose (FIG. 8D, 8000x dilution of 10 mM; text: 2.5 μM)", "value": 37, "unit": "%"},
      {"measurement": "weight loss", "setting": "[3]; 2 mg/kg/d i.p., started at ~15% weight loss, vs carrier DMSO, p<0.01", "value": "reversed"},
      {"measurement": "diarrhea", "setting": "[3]; 2 mg/kg/d i.p., vs carrier DMSO, p<0.005", "value": "reversed"},
      {"measurement": "blood in the stool", "setting": "[3]; [5]", "value": "reversed"},
      {"measurement": "colon length", "setting": "[3]; [5]", "value": "maintained"},
      {"measurement": "colon length relative to unstressed control animal", "setting": "[3]; single animal, 3% DSS then B7", "value": "about 94%"},
      {"measurement": "spleen size relative to control", "setting": "[3]; single animal, 3% DSS then B7", "value": "comparable in size to that of the control"}
    ]},
    {"smiles": "Cc1ccc2cc(NC(=O)C3CC(=O)N(CCc4ccc(Cl)cc4)C3)ccc2n1", "note": "(stereo not drawn) [Compound B7C]", "values": [
      {"measurement": "suppression of Treg in vitro", "setting": "[2]", "value": "enhancement"},
      {"measurement": "FOXP3 bound on chromatin", "setting": "[4]", "value": "intervening with FOXP3 bound on chromatin"}
    ]},
    {"smiles": "COc1ccc(NC(=O)C2CC(=O)N(CCc3ccc(Cl)cc3)C2)cc1", "note": "(stereo not drawn) [Compound B7B]", "values": [
      {"measurement": "suppression of Treg in vitro", "setting": "[2]", "value": "enhancement"}
    ]},
    {"smiles": "O=C(Nc1ccc(Cl)cc1)C1CC(=O)N(CCc2ccc(Cl)cc2)C1", "note": "(stereo not drawn) [Compound B7A]", "values": [
      {"measurement": "suppression of Treg in vitro", "setting": "[2]", "value": "enhancement"}
    ]}
  ]
}
